Bounds are passed on as bounds.

One assay has as its target T1, human PAH with the R408W mutation (Homo sapiens, UniProt P00439, R408W).
T1 construct: expressed in transfected cells
T1 sequence (P00439 1-452 R408W): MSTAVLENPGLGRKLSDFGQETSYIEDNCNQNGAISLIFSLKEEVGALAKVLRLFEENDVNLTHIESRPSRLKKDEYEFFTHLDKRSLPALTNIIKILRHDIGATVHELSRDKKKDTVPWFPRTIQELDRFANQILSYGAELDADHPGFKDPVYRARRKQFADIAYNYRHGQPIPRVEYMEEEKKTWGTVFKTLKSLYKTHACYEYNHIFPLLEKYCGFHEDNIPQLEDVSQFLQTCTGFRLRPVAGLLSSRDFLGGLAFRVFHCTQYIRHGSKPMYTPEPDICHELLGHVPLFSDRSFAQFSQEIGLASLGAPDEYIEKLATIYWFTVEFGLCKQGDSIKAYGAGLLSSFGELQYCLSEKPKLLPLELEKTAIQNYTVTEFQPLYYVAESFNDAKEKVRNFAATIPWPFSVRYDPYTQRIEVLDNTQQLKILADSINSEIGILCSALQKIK
In words: Cell Based Phenylalanine Flux Assay.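 Note: after compound treatment, cells received sepiapterin plus isotope-labelled Phenylalanine for 4 hours, then labelled Tyrosine in the medium was quantified, 10-point 2-fold dilution series run in duplicate.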 As to conditions: A375 cells expressing R408W PAH; 24 hrs with compound, then 20 µM sepiapterin and 800 µM 13C9,15N-Phenylalanine for 4 hours; 13C-Tyrosine by LC-MS; average where tested multiple times; read-out: AC50.
As to `Cn1ccc(-c2nnc(C(=O)N3CCc4[nH]cnc4C3c3cc4cc(F)ccn4n3)o2)n1` (stereo not shown), the AC50 (in general, the concentration giving half of the maximal activity seen) lay within 1000 to 5000 nM.

For the compound `O=C(c1nnc(C2CC2)o1)N1CCc2[nH]cnc2C1c1cc2ccc(C(F)(F)F)cn2n1` (stereo not shown), the half-maximal activity concentration (AC50) fell in the range of 1000 to 5000 nM.

Turning to `Cn1cc(-c2ncc(C(=O)N3CCc4[nH]cnc4C3c3cc4c(C(F)F)cccn4n3)o2)cn1` (stereo not shown), the half-maximal activity concentration (AC50) was 1000 to 5000 nM.

As to `O=C(c1ocnc1C(F)F)N1CCc2[nH]cnc2C1c1cc2cc(C(F)(F)F)ccn2n1` (stereo not shown), the AC50 lay within 1000 to 5000 nM.

On to `Cn1ccc(-c2ncc(C(=O)N3CCc4[nH]cnc4C3c3cc4c(C(F)F)cccn4n3)o2)n1` (stereo not shown), for which the concentration at half-maximal activity (AC50) fell in the range of 1000 to 5000 nM.

Regarding `NC(=O)c1ncoc1C(=O)N1CCc2[nH]cnc2C1c1cc2ccccn2n1` (stereo not shown), the concentration at half-maximal activity (AC50) fell in the range of 1000 to 5000 nM.

On to `Cc1cccn2nc(C3c4nc[nH]c4CCN3C(=O)c3cnn4cc(N5CCOCC5)ccc34)cc12` (stereo not shown), for which the AC50 was 1000 to 5000 nM.

Take `O=C(c1cnco1)N1CCc2[nH]cnc2C1c1cc2cc(C(F)(F)F)ccn2n1` (stereo not shown): the half-maximal activity concentration (AC50) is greater than 5000 nM.

With `Cc1cccc2cc(C3c4nc[nH]c4CCN3c3nnc(-c4cnccn4)o3)nn12` (stereo not shown), the AC50 is 1000 to 5000 nM.

The assay is the same for the next values; noted with them: A375 cells expressing human PAH R408W; 24 hrs compound incubation; 13C-Tyrosine by LC-MS; average where tested multiple times; read-out: AC50.
Take `Cc1cccnc1-c1nnc(N2CCc3[nH]cnc3[C@H]2c2cc3c(F)cccn3n2)o1` [Example 2280, (S)-2-(4-(4-fluoropyrazolo[1,5-a]pyridin-2-yl)-1,4,6,7-tetrahydro-5H-imidazo[4,5-c]pyridin-5-yl)-5-(3-methylpyridin-2-yl)-1,3,4-oxadiazole]: the half-maximal activity concentration (AC50) is less than 500 nM.

Take `Cn1cc(-c2nc(C3CC3)c(C(=O)N3CCc4[nH]cnc4[C@H]3c3cc4c(F)cccn4n3)o2)cn1` [Example 2073, (S)-(4-cyclopropyl-2-(1-methyl-1H-pyrazol-4-yl)oxazol-5-yl)(4-(4-fluoropyrazolo[1,5-a]pyridin-2-yl)-1,4,6,7-tetrahydro-5H-imidazo[4,5-c]pyridin-5-yl)methanone]: the AC50 was in the range of 500 to 1000 nM.

Take `Cc1cccnc1-c1nnc(N2CCc3[nH]cnc3[C@H]2c2cc3cccc(C)n3n2)o1` [Example 2309, (S)-2-(4-(7-methylpyrazolo[1,5-a]pyridin-2-yl)-1,4,6,7-tetrahydro-5H-imidazo[4,5-c]pyridin-5-yl)-5-(3-methylpyridin-2-yl)-1,3,4-oxadiazole]: the AC50 lay in the range of 500 to 1000 nM.

In the case of `Cn1cc(-c2nnc(C(=O)N3CCc4[nH]cnc4[C@H]3c3cc4c(OC(F)F)cccn4n3)o2)cn1` [Example 2445, (S)-(4-(4-(difluoromethoxy)pyrazolo[1,5-a]pyridin-2-yl)-6,7-dihydro-1H-imidazo[4,5-c]pyridin-5(4H)-yl)(5-(1-methyl-1H-pyrazol-4-yl)-1,3,4-oxadiazol-2-yl)methanone], the concentration at half-maximal activity (AC50) was in the range of 1000 to 5000 nM.

Regarding `FC(F)c1cccn2nc([C@@H]3c4nc[nH]c4CCN3c3cnccn3)cc12` [Example 1817, (S)-4-(4-(difluoromethyl)pyrazolo[1,5-a]pyridin-2-yl)-5-(pyrazin-2-yl)-4,5,6,7-tetrahydro-1H-imidazo[4,5-c]pyridine], the half-maximal activity concentration (AC50) was less than 500 nM.

As to `Cc1cccn2nc([C@@H]3c4nc[nH]c4CCN3c3nnc(C4(C)CC4)o3)cc12` [Example 2189, (S)-2-(1-methylcyclopropyl)-5-(4-(4-methylpyrazolo[1,5-a]pyridin-2-yl)-1,4,6,7-tetrahydro-5H-imidazo[4,5-c]pyridin-5-yl)-1,3,4-oxadiazole], the AC50 is 500 to 1000 nM.

As to `O=C(c1nc2ccccc2o1)N1CCc2[nH]cnc2[C@H]1c1cc2c(C(F)F)cccn2n1` [Example 2052, (S)-benzo[d]oxazol-2-yl(4-(4-(difluoromethyl)pyrazolo[1,5-a]pyridin-2-yl)-1,4,6,7-tetrahydro-5H-imidazo[4,5-c]pyridin-5-yl)methanone], the AC50 was 500 to 1000 nM.

For the compound `COc1cccn2nc([C@H]3c4nc[nH]c4CCN3c3ccc(C(F)(F)F)cn3)cc12` [Example 2246, (R)-4-(4-methoxypyrazolo[1,5-a]pyridin-2-yl)-5-(5-(trifluoromethyl)pyridin-2-yl)-4,5,6,7-tetrahydro-1H-imidazo[4,5-c]pyridine], the concentration at half-maximal activity (AC50) is greater than 5000 nM.

The assay is the same for the next values; noted with them: A375 cells expressing human R408W PAH; 24 hrs compound incubation; 13C-Tyrosine by LC-MS; average where tested multiple times; read-out: AC50.
As for `FC(F)(F)c1cccn2nc([C@@H]3c4nc[nH]c4CCN3c3nnc(-c4ccccn4)o3)cc12` [Example 1610, (S)-2-(pyridin-2-yl)-5-(4-(4-(trifluoromethyl)pyrazolo[1,5-a]pyridin-2-yl)-6,7-dihydro-1H-imidazo[4,5-c]pyridin-5(4H)-yl)-1,3,4-oxadiazole], the concentration at half-maximal activity (AC50) lay within 500 to 1000 nM.

On to `O=C(c1nnc(-c2ncccc2F)o1)N1CCc2[nH]cnc2[C@H]1c1cc2c(C(F)(F)F)cccn2n1` [Example 905, (S)-(5-(3-fluoropyridin-2-yl)-1,3,4-oxadiazol-2-yl)(4-(4-(trifluoromethyl)pyrazolo[1,5-a]pyridin-2-yl)-6,7-dihydro-1H-imidazo[4,5-c]pyridin-5(4H)-yl)methanone], for which the AC50 was less than 500 nM.

For `Cc1ccc2cc([C@@H]3c4nc[nH]c4CCN3C(=O)c3nnc(-c4ccccn4)o3)nn2c1` [Example 812, (S)-(4-(6-methylpyrazolo[1,5-a]pyridin-2-yl)-6,7-dihydro-1H-imidazo[4,5-c]pyridin-5(4H)-yl)(5-(pyridin-2-yl)-1,3,4-oxadiazol-2-yl)methanone], the concentration at half-maximal activity (AC50) fell in the range of 500 to 1000 nM.

Turning to `O=C(c1nnc(-c2cnn(C(F)(F)F)c2)o1)N1CCc2[nH]cnc2[C@@H]1c1cc2c(C(F)F)cccn2n1` [Example 1571, (R)-(4-(4-(difluoromethyl)pyrazolo[1,5-a]pyridin-2-yl)-6,7-dihydro-1H-imidazo[4,5-c]pyridin-5(4H)-yl)(5-(1-(trifluoromethyl)-1H-pyrazol-4-yl)-1,3,4-oxadiazol-2-yl)methanone], the AC50 lay in the range of 1000 to 5000 nM.

As to `Cc1nnc(C(=O)N2CCc3[nH]cnc3[C@H]2c2cc3c(Cl)cccn3n2)o1` [Example 1106, (S)-(4-(4-chloropyrazolo[1,5-a]pyridin-2-yl)-6,7-dihydro-1H-imidazo[4,5-c]pyridin-5(4H)-yl)(5-methyl-1,3,4-oxadiazol-2-yl)methanone], the half-maximal activity concentration (AC50) was less than 500 nM.

Consider `Cc1cccc2cc([C@H]3c4nc[nH]c4CCN3C(=O)c3nnc(-c4ccn(C(F)F)n4)o3)nn12` [Example 937, (R)-(5-(1-(difluoromethyl)-1H-pyrazol-3-yl)-1,3,4-oxadiazol-2-yl)(4-(7-methylpyrazolo[1,5-a]pyridin-2-yl)-6,7-dihydro-1H-imidazo[4,5-c]pyridin-5(4H)-yl)methanone], for which the AC50 was greater than 5000 nM.

Consider `Cc1cccn2nc([C@H]3c4nc[nH]c4CCN3C(=O)c3nnc(C(C)C)o3)cc12` [Example 1451, (R)-(5-isopropyl-1,3,4-oxadiazol-2-yl)(4-(4-methylpyrazolo[1,5-a]pyridin-2-yl)-6,7-dihydro-1H-imidazo[4,5-c]pyridin-5(4H)-yl)methanone], for which the AC50 was greater than 5000 nM.

Regarding `Cc1ncccc1-c1nnc(C(=O)N2CCc3[nH]cnc3[C@@H]2c2cc3cccc(C)n3n2)o1` [Example 1359, (R)-(4-(7-methylpyrazolo[1,5-a]pyridin-2-yl)-6,7-dihydro-1H-imidazo[4,5-c]pyridin-5(4H)-yl)(5-(2-methylpyridin-3-yl)-1,3,4-oxadiazol-2-yl)methanone], the concentration at half-maximal activity (AC50) lay in the range of 1000 to 5000 nM.

Turning to `Cn1nc(Cl)nc1C(=O)N1CCc2[nH]cnc2[C@H]1c1cc2c(C(F)(F)F)cccn2n1` [Example 1078, (S)-(3-chloro-1-methyl-1H-1,2,4-triazol-5-yl)(4-(4-(trifluoromethyl)pyrazolo[1,5-a]pyridin-2-yl)-6,7-dihydro-1H-imidazo[4,5-c]pyridin-5(4H)-yl)methanone], the AC50 is less than 500 nM.

Turning to `Cc1cccc2cc([C@H]3c4nc[nH]c4CCN3C(=O)c3nnc(-c4cnn(C)c4)o3)nn12` [Example 801, (R)-(5-(1-methyl-1H-pyrazol-4-yl)-1,3,4-oxadiazol-2-yl)(4-(7-methylpyrazolo[1,5-a]pyridin-2-yl)-6,7-dihydro-1H-imidazo[4,5-c]pyridin-5(4H)-yl)methanone], the AC50 was greater than 5000 nM.

On to `Cc1cccn2nc([C@@H]3c4nc[nH]c4CCN3C(=O)c3nnc(C4CC(F)(F)C4)o3)cc12` [Example 1598, (S)-(5-(3,3-difluorocyclobutyl)-1,3,4-oxadiazol-2-yl)(4-(4-methylpyrazolo[1,5-a]pyridin-2-yl)-6,7-dihydro-1H-imidazo[4,5-c]pyridin-5(4H)-yl)methanone], for which the concentration at half-maximal activity (AC50) lay within 500 to 1000 nM.

Turning to `O=C(c1cnn2cc(C3CC3)ccc12)N1CCc2[nH]cnc2[C@@H]1c1cc2cccc(F)n2n1` [Example 1791, (R)-(6-cyclopropylpyrazolo[1,5-a]pyridin-3-yl)(4-(7-fluoropyrazolo[1,5-a]pyridin-2-yl)-6,7-dihydro-1H-imidazo[4,5-c]pyridin-5(4H)-yl)methanone], the half-maximal activity concentration (AC50) is greater than 5000 nM.

For `Cc1cccn2nc([C@@H]3c4nc[nH]c4CCN3C(=O)c3nc(C4CC4)nn3C)cc12` [Example 1058, (S)-(3-cyclopropyl-1-methyl-1H-1,2,4-triazol-5-yl)(4-(4-methylpyrazolo[1,5-a]pyridin-2-yl)-6,7-dihydro-1H-imidazo[4,5-c)pyridin-5(4H)-yl)methanone], the concentration at half-maximal activity (AC50) lay in the range of 500 to 1000 nM.

Turning to `CC1(c2nnc(C(=O)N3CCc4[nH]cnc4[C@@H]3c3cc4c(Cl)cccn4n3)o2)CC1` [Example 1320, (R)-(4-(4-chloropyrazolo[1,5-a]pyridin-2-yl)-6,7-dihydro-1H-imidazo[4,5-c]pyridin-5(4H)-yl)(5-(1-methylcyclopropyl)-1,3,4-oxadiazol-2-yl)methanone], the AC50 was 1000 to 5000 nM.

These data come from patent US20230365592A1 (Agios Pharmaceuticals, Inc., priority 2022, published 2023).
